Test results from PubChem BioAssay (NCI).
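GI50: concentration for 50% inhibition of growth. TGI: total growth inhibition.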

Tests used:
Experiment in all cases: DTP human tumour cell line panel, 384-well format
786-0 renal = tested on: 786-0 renal
A498 renal = tested on: A498 renal
A549 NSCLC = tested on: A549 NSCLC
ACHN renal = tested on: ACHN renal
BT-549 breast = tested on: BT-549 breast
CAKI-1 renal = tested on: CAKI-1 renal
CCRF-CEM leukemia = tested on: CCRF-CEM leukemia
COLO 205 colon = tested on: COLO 205 colon
DU-145 prostate = tested on: DU-145 prostate
EKVX NSCLC = tested on: EKVX NSCLC
HCC-2998 colon = tested on: HCC-2998 colon
HCT-15 colon = tested on: HCT-15 colon
HL-60(TB) leukemia = tested on: HL-60(TB) leukemia
HOP-62 NSCLC = tested on: HOP-62 NSCLC
HOP-92 NSCLC = tested on: HOP-92 NSCLC
HS 578T breast = tested on: HS 578T breast
HT29 colon = tested on: HT29 colon
IGROV1 ovarian = tested on: IGROV1 ovarian
K-562 leukemia = tested on: K-562 leukemia
KM12 colon = tested on: KM12 colon
LOX IMVI melanoma = tested on: LOX IMVI melanoma
M14 melanoma = tested on: M14 melanoma
MALME-3M melanoma = tested on: MALME-3M melanoma
MCF7 breast = tested on: MCF7 breast
MDA-MB-231 breast = tested on: MDA-MB-231 breast
MDA-MB-435 melanoma = tested on: MDA-MB-435 melanoma
MDA-MB-468 breast = tested on: MDA-MB-468 breast
MOLT-4 leukemia = tested on: MOLT-4 leukemia
NCI-H226 lung = tested on: NCI-H226 lung
NCI-H23 lung = tested on: NCI-H23 lung
NCI-H322M lung = tested on: NCI-H322M lung
NCI-H460 NSCLC = tested on: NCI-H460 NSCLC
NCI-H522 lung = tested on: NCI-H522 lung
NCI/ADR-RES ovarian = tested on: NCI/ADR-RES ovarian
OVCAR-3 ovarian = tested on: OVCAR-3 ovarian
OVCAR-4 ovarian = tested on: OVCAR-4 ovarian
OVCAR-5 ovarian = tested on: OVCAR-5 ovarian
OVCAR-8 ovarian = tested on: OVCAR-8 ovarian
PC-3 prostate = tested on: PC-3 prostate
RPMI-8226 leukemia = tested on: RPMI-8226 leukemia
RXF 393 renal = tested on: RXF 393 renal
SF-268 CNS = tested on: SF-268 CNS
SF-295 CNS = tested on: SF-295 CNS
SF-539 CNS = tested on: SF-539 CNS
SK-MEL-28 melanoma = tested on: SK-MEL-28 melanoma
SK-MEL-5 melanoma = tested on: SK-MEL-5 melanoma
SK-OV-3 ovarian = tested on: SK-OV-3 ovarian
SN12C renal = tested on: SN12C renal
SNB-19 CNS = tested on: SNB-19 CNS
SNB-75 CNS = tested on: SNB-75 CNS
SR leukemia = tested on: SR leukemia
SW-620 colon = tested on: SW-620 colon
T-47D breast = tested on: T-47D breast
TK-10 renal = tested on: TK-10 renal
U251 glioblastoma = tested on: U251 glioblastoma
UACC-257 melanoma = tested on: UACC-257 melanoma
UACC-62 melanoma = tested on: UACC-62 melanoma
UO-31 renal = tested on: UO-31 renal

Cc1c(CN2CCN(C(=O)[C@H](C)O)CC2)sc2c(N3CCOCC3)nc(-c3cnc(N)nc3)nc12
GI50 ([…]-0 renal): 350 nM
TGI (786-0 renal): 2860 nM
GI50 (A498 renal): 88.2 nM
TGI (A498 renal): 473 nM
GI50 (A549 NSCLC): 261 nM
TGI (A549 NSCLC): 2600 nM
GI50 (ACHN renal): 193 nM
TGI (ACHN renal): 1150 nM
GI50 (BT-549 breast): 197 nM
TGI (BT-549 breast): 922 nM
GI50 (CAKI-1 renal): 197 nM
TGI (CAKI-1 renal): 2820 nM
GI50 (CCRF-CEM leukemia): 361 nM
TGI (CCRF-CEM leukemia): 1920 nM
GI50 (COLO 205 colon): 208 nM
TGI (COLO 205 colon): 1370 nM
GI50 (DU-145 prostate): 272 nM
TGI (DU-145 prostate): 4100 nM
GI50 (EKVX NSCLC): 173 nM
TGI (EKVX NSCLC): 1010 nM
GI50 (HCC-2998 colon): 404 nM
TGI (HCC-2998 colon): 14700 nM
GI50 (HCT-15 colon): 198 nM
TGI (HCT-15 colon): > 100000 nM
GI50 (HL-60(TB) leukemia): 121 nM
TGI (HL-60(TB) leukemia): 577 nM
GI50 (HOP-62 NSCLC): 292 nM
TGI (HOP-62 NSCLC): 2920 nM
GI50 (HOP-92 NSCLC): 84.9 nM
TGI (HOP-92 NSCLC): 446 nM
GI50 (HS 578T breast): 139 nM
TGI (HS 578T breast): 419 nM
GI50 (HT29 colon): 246 nM
TGI (HT29 colon): > 100000 nM
GI50 (IGROV1 ovarian): 41.6 nM
TGI (IGROV1 ovarian): 192 nM
GI50 (K-562 leukemia): 943 nM
TGI (K-562 leukemia): > 100000 nM
GI50 (KM12 colon): 354 nM
TGI (KM12 colon): 6970 nM
GI50 (LOX IMVI melanoma): 239 nM
TGI (LOX IMVI melanoma): 1130 nM
GI50 (M14 melanoma): 228 nM
TGI (M14 melanoma): 3710 nM
GI50 (MALME-3M melanoma): 51 nM
TGI (MALME-3M melanoma): 286 nM
GI50 (MCF7 breast): 48.5 nM
TGI (MCF7 breast): > 100000 nM
GI50 (MDA-MB-231 breast): 290 nM
TGI (MDA-MB-231 breast): > 100000 nM
GI50 (MDA-MB-435 melanoma): 230 nM
TGI (MDA-MB-435 melanoma): 1530 nM
GI50 (MDA-MB-468 breast): 97.6 nM
TGI (MDA-MB-468 breast): 352 nM
GI50 (MOLT-4 leukemia): 97.5 nM
TGI (MOLT-4 leukemia): 282 nM
GI50 (NCI-H226 lung): 158 nM
TGI (NCI-H226 lung): 784 nM
GI50 (NCI-H23 lung): 179 nM
TGI (NCI-H23 lung): 5800 nM
GI50 (NCI-H322M lung): 244 nM
TGI (NCI-H322M lung): 6600 nM
GI50 (NCI-H460 NSCLC): 78.6 nM
TGI (NCI-H460 NSCLC): > 100000 nM
GI50 (NCI-H522 lung): 208 nM
TGI (NCI-H522 lung): 974 nM
GI50 (NCI/ADR-RES ovarian): 651 nM
TGI (NCI/ADR-RES ovarian): > 100000 nM
GI50 (OVCAR-3 ovarian): 211 nM
TGI (OVCAR-3 ovarian): 1740 nM
GI50 (OVCAR-4 ovarian): 128 nM
TGI (OVCAR-4 ovarian): 726 nM
GI50 (OVCAR-5 ovarian): 137 nM
TGI (OVCAR-5 ovarian): 823 nM
GI50 (OVCAR-8 ovarian): 333 nM
TGI (OVCAR-8 ovarian): > 100000 nM
GI50 (PC-3 prostate): 149 nM
TGI (PC-3 prostate): 2430 nM
GI50 (RPMI-8226 leukemia): 54.4 nM
TGI (RPMI-8226 leukemia): 200 nM
GI50 (RXF 393 renal): 352 nM
TGI (RXF 393 renal): 2330 nM
GI50 (SF-268 CNS): 386 nM
TGI (SF-268 CNS): 16600 nM
GI50 (SF-295 CNS): 148 nM
TGI (SF-295 CNS): 695 nM
GI50 (SF-539 CNS): 300 nM
TGI (SF-539 CNS): 3070 nM
GI50 (SK-MEL-28 melanoma): 154 nM
TGI (SK-MEL-28 melanoma): 719 nM
GI50 (SK-MEL-5 melanoma): 119 nM
TGI (SK-MEL-5 melanoma): 386 nM
GI50 (SK-OV-3 ovarian): 133 nM
TGI (SK-OV-3 ovarian): 448 nM
GI50 (SN12C renal): 148 nM
TGI (SN12C renal): 694 nM
GI50 (SNB-19 CNS): 2490 nM
TGI (SNB-19 CNS): > 100000 nM
GI50 (SNB-75 CNS): 143 nM
TGI (SNB-75 CNS): 775 nM
GI50 (SR leukemia): 176 nM
TGI (SR leukemia): 609 nM
GI50 (SW-620 colon): 594 nM
TGI (SW-620 colon): > 100000 nM
GI50 (T-47D breast): 25.9 nM
TGI (T-47D breast): 110 nM
GI50 (TK-10 renal): 223 nM
TGI (TK-10 renal): 1380 nM
GI50 (U251 glioblastoma): 1060 nM
TGI (U251 glioblastoma): > 100000 nM
GI50 (UACC-257 melanoma): 185 nM
TGI (UACC-257 melanoma): 884 nM
GI50 (UACC-62 melanoma): 211 nM
TGI (UACC-62 melanoma): 1200 nM
GI50 (UO-31 renal): 295 nM
TGI (UO-31 renal): > 100000 nM
